Test results: the supplement of paper PMC10307832

Key:
Test in all cases: relative viability (nuclei count vs DMSO), 5 days (fraction); higher = more cells survive
[1] = test system: LOU-NH91
How it was run: (§1)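 Relative viability divides the nuclei count in treated wells by that in vehicle wells. Lung cancer cell lines were seeded in 1536-well plates, dosed by pin tool the next day, and fixed and stained after 5 days in one step with final 0.05% Triton X-100, 1% formaldehyde and 1 ug/ml Hoechst. Dosing was a single drug or a fixed anchor-drug dose plus five library-drug doses (not always all listed) in √10 steps, and values are medians of duplicate plates imaged at 4×.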

[2] = test system: 201T
How it was run: as §1

[3] = test system: LK-2
How it was run: as §1

[4] = test system: PC-3 [JPC-3]
How it was run: as §1

[5] = test system: COR-L23
How it was run: as §1

[6] = test system: NCI-H23
How it was run: as §1

[7] = test system: NCI-H1793
How it was run: as §1

[8] = test system: LCLC-97TM1
How it was run: as §1

[9] = test system: NCI-H1651
How it was run: as §1

[10] = test system: UMC-11
How it was run: as §1

[11] = test system: NCI-H838
How it was run: as §1

[12] = test system: NCI-H2347
How it was run: as §1

[13] = test system: HARA
How it was run: as §1

[14] = test system: RERF-LC-KJ
How it was run: as §1

[15] = test system: NCI-H520
How it was run: as §1

[16] = test system: NCI-H647
How it was run: as §1

[17] = test system: NCI-H2405
How it was run: as §1

[18] = test system: LXF-289
How it was run: as §1

[19] = test system: HCC-78
How it was run: as §1

[20] = test system: A-427
How it was run: as §1

[21] = test system: NCI-H1650
How it was run: as §1

CCNC(=O)c1noc(-c2cc(C(C)C)c(O)cc2O)c1-c1ccc(CN2CCOCC2)cc1 [Luminespib] + CS(=O)(=O)CCNCc1ccc(-c2ccc3ncnc(Nc4ccc(OCc5cccc(F)c5)c(Cl)c4)c3c2)o1 [Lapatinib] (partner 2 µM)
relative viability ([1]; first compound 0.002 µM): 0.791 | relative viability ([1]; first compound 0.006325 µM): 0.833 | relative viability ([1]; first compound 0.02 µM): 0.588 | relative viability ([1]; first compound 0.06325 µM): 0.338 | relative viability ([1]; first compound 0.2 µM): 0.342 | relative viability ([2]; first compound 0.002 µM): 1.03 | relative viability ([2]; first compound 0.006325 µM): 0.961 | relative viability ([2]; first compound 0.02 µM): 0.878 | relative viability ([2]; first compound 0.06325 µM): 1.02 | relative viability ([2]; first compound 0.2 µM): 0.986 | relative viability ([3]; first compound 0.002 µM): 0.849 | relative viability ([3]; first compound 0.006325 µM): 0.941 | relative viability ([3]; first compound 0.02 µM): 0.545 | relative viability ([3]; first compound 0.06325 µM): 0.252 | relative viability ([3]; first compound 0.2 µM): 0.204 | relative viability ([4]; first compound 0.002 µM): 0.486 | relative viability ([4]; first compound 0.006325 µM): 0.471 | relative viability ([4]; first compound 0.02 µM): 0.404 | relative viability ([4]; first compound 0.06325 µM): 0.488 | relative viability ([4]; first compound 0.2 µM): 0.338 | relative viability ([5]; first compound 0.002 µM): 1.22 | relative viability ([5]; first compound 0.006325 µM): 0.945 | relative viability ([5]; first compound 0.02 µM): 0.924 | relative viability ([5]; first compound 0.06325 µM): 0.0749 | relative viability ([5]; first compound 0.2 µM): 0.0671 | relative viability ([6]; first compound 0.002 µM): 1.02 | relative viability ([6]; first compound 0.006325 µM): 1.1 | relative viability ([6]; first compound 0.02 µM): 0.587 | relative viability ([6]; first compound 0.06325 µM): 0.139 | relative viability ([6]; first compound 0.2 µM): 0.112 | relative viability ([7]; first compound 0.002 µM): 0.697 | relative viability ([7]; first compound 0.006325 µM): 0.832 | relative viability ([7]; first compound 0.02 µM): 0.223 | relative viability ([7]; first compound 0.06325 µM): 0.167 | relative viability ([7]; first compound 0.2 µM): 0.177 | relative viability ([8]; first compound 0.002 µM): 1.33 | relative viability ([8]; first compound 0.006325 µM): 0.759 | relative viability ([8]; first compound 0.02 µM): 0.318 | relative viability ([8]; first compound 0.06325 µM): 0.197 | relative viability ([8]; first compound 0.2 µM): 0.139 | relative viability ([9]; first compound 0.002 µM): 0.902 | relative viability ([9]; first compound 0.006325 µM): 0.803 | relative viability ([9]; first compound 0.02 µM): 0.561 | relative viability ([9]; first compound 0.06325 µM): 0.193 | relative viability ([9]; first compound 0.2 µM): 0.161 | relative viability ([10]; first compound 0.002 µM): 0.85 | relative viability ([10]; first compound 0.006325 µM): 0.834 | relative viability ([10]; first compound 0.02 µM): 0.395 | relative viability ([10]; first compound 0.06325 µM): 0.345 | relative viability ([10]; first compound 0.2 µM): 0.125 | relative viability ([11]; first compound 0.002 µM): 1.05 | relative viability ([11]; first compound 0.006325 µM): 0.911 | relative viability ([11]; first compound 0.02 µM): 0.328 | relative viability ([11]; first compound 0.06325 µM): 0.103 | relative viability ([11]; first compound 0.2 µM): 0.0976 | relative viability ([12]; first compound 0.002 µM): 0.941 | relative viability ([12]; first compound 0.02 µM): 0.876 | relative viability ([12]; first compound 0.06325 µM): 0.758 | relative viability ([12]; first compound 0.2 µM): 0.88 | relative viability ([13]; first compound 0.002 µM): 0.704 | relative viability ([13]; first compound 0.006325 µM): 0.709 | relative viability ([13]; first compound 0.02 µM): 0.465 | relative viability ([13]; first compound 0.06325 µM): 0.335 | relative viability ([13]; first compound 0.2 µM): 0.259 | relative viability ([14]; first compound 0.002 µM): 0.825 | relative viability ([14]; first compound 0.006325 µM): 0.812 | relative viability ([14]; first compound 0.02 µM): 0.621 | relative viability ([14]; first compound 0.06325 µM): 0.726 | relative viability ([14]; first compound 0.2 µM): 0.294 | relative viability ([15]; first compound 0.002 µM): 0.848 | relative viability ([15]; first compound 0.006325 µM): 0.792 | relative viability ([15]; first compound 0.02 µM): 0.353 | relative viability ([15]; first compound 0.06325 µM): 0.11 | relative viability ([15]; first compound 0.2 µM): 0.138 | relative viability ([16]; first compound 0.002 µM): 1.2 | relative viability ([16]; first compound 0.006325 µM): 1.16 | relative viability ([16]; first compound 0.02 µM): 0.359 | relative viability ([16]; first compound 0.06325 µM): 0.0578 | relative viability ([16]; first compound 0.2 µM): 0.0724 | relative viability ([17]; first compound 0.002 µM): 1.17 | relative viability ([17]; first compound 0.006325 µM): 0.876 | relative viability ([17]; first compound 0.02 µM): 0.869 | relative viability ([17]; first compound 0.06325 µM): 0.144 | relative viability ([17]; first compound 0.2 µM): 0.125 | relative viability ([18]; first compound 0.002 µM): 0.905 | relative viability ([18]; first compound 0.006325 µM): 0.877 | relative viability ([18]; first compound 0.02 µM): 1.02 | relative viability ([18]; first compound 0.06325 µM): 0.554 | relative viability ([18]; first compound 0.2 µM): 0.115 | relative viability ([19]; first compound 0.002 µM): 0.572 | relative viability ([19]; first compound 0.06325 µM): 1.32 | relative viability ([19]; first compound 0.2 µM): 1.27 | relative viability ([20]; first compound 0.002 µM): 1.08 | relative viability ([20]; first compound 0.006325 µM): 1.02 | relative viability ([20]; first compound 0.02 µM): 0.771 | relative viability ([20]; first compound 0.06325 µM): 1.04 | relative viability ([20]; first compound 0.2 µM): 0.975 | relative viability ([21]; first compound 0.002 µM): 0.761 | relative viability ([21]; first compound 0.006325 µM): 0.642 | relative viability ([21]; first compound 0.02 µM): 0.177 | relative viability ([21]; first compound 0.06325 µM): 0.145 | relative viability ([21]; first compound 0.2 µM): 0.176
